Patent US20200256853A1, “Models of Reconstructed Sensitive Skin” (Laboratoires Expanscience, priority 2017, published 2020)

What was measured:
Format in all cases: cell-based
[1] = test system: reconstructed human epidermises; experiment: Viability of reconstructed epidermises (MTT); details: Lactic acid 0.6% topical, 48 h; control 100%; donor
Method: (§1) Reconstructed human epidermises were obtained from the keratinocytes of a donor using the method derived from Poumay et al. (Arch Dermatol Res 2004; 296:203-11). After 2 days of immersion culture, the reconstructed human epidermises were cultured at the air/liquid interface for 10 days.
The viability of the epidermises was assessed by an MTT metabolism test (n=2). The optical density (OD) at 540 nm is proportional to the amount of living cells and their metabolic activity.

[2] = test system: reconstructed human epidermises; experiment: Gene expression in reconstructed epidermises (qRT-PCR); details: Lactic acid 0.6%; control = 100
Method: Reconstructed human epidermises were obtained from the keratinocytes of a donor using the method derived from Poumay et al. (Arch Dermatol Res 2004; 296:203-11). After 2 days of immersion culture, the reconstructed human epidermises were cultured at the air/liquid interface for 10 days. […] Gene expression of inflammatory markers and of markers of innate immunity and defense was evaluated by real-time quantitative PCR (qRT-PCR) on messenger RNAs extracted from epidermis (n=2). Gene expression of the innate immunity and defense markers, beta-defensin 2 hBD2, or Toll-like receptor 2, was also evaluated in the same way. The gene expression analysis was performed in duplicate using a PCR array. The quantitative analysis of gene expression was based on the analysis of threshold cycles; relative expression (RE) was expressed in arbitrary units according to the following formula: RE=(½ number of cycles)×10^6

[3] = test system: reconstructed human epidermises; experiment: Immunolabeling of involucrin in reconstructed epidermis; details: Lactic acid 0.6%; fluorescence intensity vs. control
Method: Reconstructed human epidermises were obtained from the keratinocytes of a donor using the method derived from Poumay et al. (Arch Dermatol Res 2004; 296:203-11). After 2 days of immersion culture, the reconstructed human epidermises were cultured at the air/liquid interface for 10 days. […] On the other hand, involucrin was stained by immunofluorescence (Alexa-488; green dye), the nuclei were stained by propidium iodide (red dye). The involucrin staining was quantified by measuring the fluorescence intensity reported on the surface of the living layers of the epidermis.

[4] = test system: reconstructed human epidermises; experiment: Intracellular determinations of inflammatory markers (ELISA), Example 2; details: Lactic acid 0.6%
Method: as §1
(§2) Intracellular amounts of IL-1α, IL8 and IL1-RA were determined by ELISA (R&D Systems) in ground epidermis (n=2).

[5] = test system: reconstructed human epidermises; experiment: Determinations of released inflammatory markers, Example 2; details: Lactic acid 0.6%
Method: Reconstructed human epidermises were obtained from the keratinocytes of a donor using the method derived from Poumay et al. (Arch Dermatol Res 2004; 296:203-11). After 2 days of immersion culture, the reconstructed human epidermises were cultured at the air/liquid interface for 10 days. […] The amount of inflammatory markers present in culture supernatants was assessed (n=6) using CBA kits (BD Biosciences) for IL-1 alpha (IL1α) and IL-8; and ELISA kits for VEGF (R&D Systems) and PGE2 (Enzo).

[6] = test system: reconstructed human epidermises; experiment: Determination of polyunsaturated fatty acids (PUFAs) in reconstructed epidermises (GC/MS), Example 2; details: Lactic acid 0.6%
Method: as §1
(§3) Screening of polyunsaturated fatty acids (PUFAs) expressed by the epidermis was carried out by GC/MS analysis of samples obtained after grinding the epidermises (n=2).
(§4) The amounts were normalized by C16:0 (palmitic acid), which is representative of the overall lipid content of the epidermis.

[7] = test system: reconstructed Sensitive Skin model (reconstructed human epidermises treated with 0.6% lactic acid); experiment: Intracellular measurements of inflammatory mediators (ELISA) in reconstructed Sensitive Skin model, Example 3
Method: as §2
(§5) Reconstructed human epidermises were obtained from the keratinocytes of a […] donor using the method derived from Poumay et al. (Arch Dermatol Res 2004; 296:203-11). After 2 days of immersion culture, the reconstructed human epidermises were cultured at the air/liquid interface for 10 days.
(§6) Epidermises at differentiation day 10 was treated or not (control) systemically with the test compounds and incubated for 24 hours.
(§7) The amount of inflammatory mediators IL-1alpha (IL1α), IL-8 and PGE2 present in skin culture supernatants was evaluated using ELISA kits (R&D Systems). • Evaluations of intracellular inflammatory markers IL-1α, IL8 and IL1-RA (n=2)
(§8) Same protocol as described in Example 2. • Determination of Poly-Unsaturated Fatty Acids (PUFAs) (n=2)

[8] = test system: reconstructed Sensitive Skin model (reconstructed human epidermises treated with 0.6% lactic acid); experiment: Determinations of released inflammatory mediators (ELISA) in reconstructed Sensitive Skin model, Example 3
Method: as §5, §6, §7

[9] = test system: reconstructed Sensitive Skin model (reconstructed human epidermises treated with 0.6% lactic acid); experiment: Determination of PUFAs (GC/MS) in reconstructed Sensitive Skin model, Example 3
Method: as §3, §4, §5, §6, §8
Same protocol as described in Example 2.

[10] = Lactic acid 0.6%, change vs. control
[11] = OX100 10 μM + lactic acid 0.6%, change vs. lactic acid
[12] = OX100 100 μM + lactic acid 0.6%
[13] = OX100 100 μM + lactic acid 0.6%, change vs. lactic acid

CC(O)C(=O)O (stereo not shown) [Lactic acid, lactic acid]
Viability [1]: 66% | ADCYAP1 gene expression [2]: 117 | DEFB4A gene expression [2]: 6 | IL1A gene expression [2]: 240 | IL1B gene expression [2]: 195 | IL1RN gene expression [2]: 144 | IL8 gene expression [2]: 649 | PLA2G2F2F gene expression [2]: 129 | PTGS2 gene expression [2]: 182 | THBS1 gene expression [2]: 181 | TLR2 gene expression [2]: 54 | TNF gene expression [2]: 105 | VEGF-A gene expression [2]: 138 | Decrease in the expression level of involucrin [3]: −22% | Intracellular IL1-RA Change vs. control [4]: +1242% | Intracellular IL1-alpha Change vs. control [4]: +806% | Intracellular IL8 Change vs. control [4]: +390% | Intracellular IL1-RA ([4]; 48 h): 31243 pg/mg protein | Intracellular IL1-alpha ([4]; 48 h): 794 pg/mg protein | Intracellular IL8 ([4]; 48 h): 52.1 pg/mg protein | Released IL1-alpha Change vs. control [5]: +221% | Released IL8 Change vs. control [5]: +84% | Released PGE2 Change vs. control [5]: +207% | Released VEGF Change vs. control [5]: +156% | Released IL1-alpha ([5]; 48 h, culture supernatant): 23 ± 7 pg/mL | Released IL8 ([5]; 48 h, culture supernatant): 120 ± 18 pg/mL | Released PGE2 ([5]; 48 h, culture supernatant): 149 ± 36 pg/mL | Released VEGF ([5]; 48 h, culture supernatant): 1109 ± 45 pg/mL | C18:1 Change vs. control [6]: +20% | C18:1 amount normalized to C16:0 [6]: 0.226 | C18:2 LA Change vs. control [6]: +19% | C18:2 LA amount normalized to C16:0 [6]: 0.216 | C20:4 AA Change vs. control [6]: +42% | C20:4 AA amount normalized to C16:0 [6]: 0.050 | Intracellular IL1-alpha Mean ± SD ([7]; Lactic acid 0.6% topical, 48 h): 1044 ± 123.0 pg/mg protein | Intracellular IL1RA Mean ± SD ([7]; Lactic acid 0.6% topical, 48 h): 25750 ± 1974 pg/mg protein | Intracellular IL8 Mean ± SD ([7]; Lactic acid 0.6% topical, 48 h): 79.20 ± 7.715 pg/mg protein | Intracellular IL1-alpha Change [7, 10]: +277% | Intracellular IL1RA Change [7, 10]: +394% | Intracellular IL8 Change [7, 10]: +113% | Released IL1-alpha Mean ± Standard deviation ([8]; Lactic acid 0.6% topical, 48 h): 68 ± 34 pg/mL | Released IL8 Mean ± Standard deviation ([8]; Lactic acid 0.6% topical, 48 h): 209 ± 40 pg/mL | Released PGE2 Mean ± Standard deviation ([8]; Lactic acid 0.6% topical, 48 h): 197 ± 79 pg/mL | Released IL1-alpha Change [8, 10]: +511% | Released IL8 Change [8, 10]: +169% | Released PGE2 Change [8, 10]: +584% | C18:1 Mean ± SD, amount normalized to C16:0 ([9]; Lactic acid 0.6% topical, 48 h): 0.3880 | C18:2 LA Mean ± SD, amount normalized to C16:0 ([9]; Lactic acid 0.6% topical, 48 h): 0.2130 | C20:4 AA Mean ± SD, amount normalized to C16:0 ([9]; Lactic acid 0.6% topical, 48 h): 0.0575 | C18:1 Change [9, 10]: +110% | C18:2 LA Change [9, 10]: +134% | C20:4 AA Change [9, 10]: +113%

CCCCCCCCCCCC1=NC(C)(C)CO1 [OX100, Cycloceramide]
IL1RA/IL1-alpha ratio Mean ± SD ([7]; OX100 10 μM + lactic acid 0.6%): 25.6 ± 0.276 | Intracellular IL1-alpha Mean ± SD ([7]; OX100 10 μM + lactic acid 0.6%): 919.5 ± 53.03 pg/mg protein | Intracellular IL1RA Mean ± SD ([7]; OX100 10 μM + lactic acid 0.6%): 23566 ± 1624 pg/mg protein | Intracellular IL8 Mean ± SD ([7]; OX100 10 μM + lactic acid 0.6%): 76.24 ± 8.309 pg/mg protein | IL1RA/IL1-alpha ratio Change [7, 11]: +4% | Intracellular IL1-alpha Change [7, 11]: −12% | Intracellular IL1RA Change [7, 11]: −8% | Intracellular IL8 Change [7, 11]: −4% | IL1RA/IL1-alpha ratio Mean ± SD [7, 12]: 20.5 ± 0.481 | Intracellular IL1-alpha Mean ± SD [7, 12]: 713.5 ± 113.8 pg/mg protein | Intracellular IL1RA Mean ± SD [7, 12]: 14581 ± 1989 pg/mg protein | Intracellular IL8 Mean ± SD [7, 12]: 56.95 ± 7.460 pg/mg protein | IL1RA/IL1-alpha ratio Change [7, 13]: −17% | Intracellular IL1-alpha Change [7, 13]: −32% | Intracellular IL1RA Change [7, 13]: −43% | Intracellular IL8 Change [7, 13]: −28% | IL1RA/IL1α ratio (in words) ([7]; concentration not given): maintained the balance of the IL1RA/IL1α ratio | Increase in intracellular IL1RA level induced by lactic acid treatment (in words) ([7]; concentration not given): significantly inhibited | Released IL1-alpha Mean ± Standard deviation ([8]; OX100 10 μM + lactic acid 0.6%): 27 ± 13 pg/mL | Released IL8 Mean ± Standard deviation ([8]; OX100 10 μM + lactic acid 0.6%): 175 ± 30 pg/mL | Released PGE2 Mean ± Standard deviation ([8]; OX100 10 μM + lactic acid 0.6%): 98 ± 28 pg/mL | Released IL1-alpha Change [8, 11]: −61% | Released IL8 Change [8, 11]: −16% | Released PGE2 Change [8, 11]: −50% | Released IL1-alpha Mean ± Standard deviation [8, 12]: 31 ± 19 pg/mL | Released IL8 Mean ± Standard deviation [8, 12]: 146 ± 24 pg/mL | Released PGE2 Mean ± Standard deviation [8, 12]: 100 ± 48 pg/mL | Released IL1-alpha Change [8, 13]: −54% | Released IL8 Change [8, 13]: −30% | Released PGE2 Change [8, 13]: −49% | Release of IL1α induced by lactic acid (in words) ([8]; concentration not given): significantly inhibited | Release of IL8 induced by lactic acid (in words) ([8]; concentration not given): significantly inhibited | Release of PGE2 induced by lactic acid (in words) ([8]; concentration not given): significantly inhibited | C18:1 Mean ± SD, amount normalized to C16:0 ([9]; OX100 10 μM + lactic acid 0.6%): 0.2795 | C18:2 LA Mean ± SD, amount normalized to C16:0 ([9]; OX100 10 μM + lactic acid 0.6%): 0.1515 | C20:4 AA Mean ± SD, amount normalized to C16:0 ([9]; OX100 10 μM + lactic acid 0.6%): 0.0380 | C18:1 Change [9, 11]: −28% | C18:2 LA Change [9, 11]: −29% | C20:4 AA Change [9, 11]: −34% | C18:1 Mean ± SD, amount normalized to C16:0 [9, 12]: 0.2065 | C18:2 LA Mean ± SD, amount normalized to C16:0 [9, 12]: 0.0970 | C20:4 AA Mean ± SD, amount normalized to C16:0 [9, 12]: 0.0265 | C18:1 Change [9, 13]: −47% | C18:2 LA Change [9, 13]: −54% | C20:4 AA Change [9, 13]: −54%
